The conditions of data set [1]: cited from earlier work.
Data set [2] can be described thus: Degradation of 5-deB in Britton-Robinson buffer followed by 1D 1H NMR. In kind it is physicochemical. Conditions: apparent pH 2.5, 55° C., 5 hr. An excerpt:
The deuteriation effects at C8 as in erythromycin B were observed but there was no change elsewhere.

The format of data set [3] is physicochemical. Here is the method:
The suspected intermediate, eBee was prepared and then was added into a partially degraded erythromycin B, the mixture of partially degraded erythromycin B, and the pure eBee solution were compared. […] However, the involvement of eBee as the intermediate in the degradation of erythromycin B was clearly observed in the degradation experiment of eBee.
At present, there is no mechanism of degradation of erythromycin B which has been proposed. An experiment was designed to distinguish whether eBee is degraded to 5-deB via erythromycin B or not. Britton-Robinson buffers, 40 mM of pH2 and 7 were prepared and aliquoted into eppendorf tubes. Just before the experiment started, erythromycin B was dissolved in 20 ul of dimethyl-d6 sulfoxide (99.9 atom % D, Sigma, St Louis, USA) and then was transferred immediately into the buffer and 1D^1H NMR spectra were recorded at 37° C. The typical spectra at 0, 10 and 20 min are depicted in FIGS. 19, 20 and 21, respectively.
After 10 min, the amount of eBee was reduced to almost 40%, but 5-deB was still undetectable. After 20 min, 5-deB appeared in the spectrum, characterised by its H13 at δ5.38, whilst eBee became insignificant in the spectrum.
A similar experiment was repeated by using buffer at pH 7, and 1D^1H spectra were recorded at 37° C. The spectrum of eBee after 0 and 60 min of incubation are depicted in FIGS. 22 and 23, respectively. […] There was trace of erythromycin B but no eBee was detected in the spectra.

Read-outs that look alike come from different tables or passages of the source. Where only a bound is given, the exact number is not on record here.

As to `CC[C@H]1OC(=O)[C@H](C)[C@@H](O[C@H]2C[C@@](C)(OC)[C@@H](O)[C@H](C)O2)[C@H](C)[C@@H](O[C@@H]2O[C@H](C)C[C@H](N(C)C)[C@H]2O)[C@](C)(O)C[C@@H](C)C(=O)[C@H](C)[C@@H](O)[C@H]1C` [erythromycin B, Erythromycin B], for the setting “pH 2.5, depending on the temperature used”, the “time in which decomposition was completed” value lay in the range of 6 to 12 h. The degradation result (pH 4.6) was “degradation occurred very slowly”.
Take `CC[C@H]1OC(=O)[C@H](C)[C@@H](O[C@H]2C[C@@](C)(OC)[C@@H](O)[C@H](C)O2)[C@H](C)[C@@H](O[C@@H]2O[C@H](C)C[C@H](N(C)C)[C@H]2O)[C@](C)(O)C[C@@H](C)C(=O)[C@H](C)[C@@H](O)[C@]1(C)O` [erythromycin A]: the “time in which degraded to completeness” value in data set [1] (50 mM acetate buffer pH 4.6, 60° C.) was at most 3 h. The “time in which decomposed almost completely” value in data set [1] (50 mM formate buffer pH 4, 37° C.) is at most 4 h. For the same compound, in data set [1] (pH 3.5, 35° C.), the degradation entry is “degraded substantially even before the first spectrum was recorded”.
Regarding 5-desosaminyl erythronolide B [5-deB], in data set [2], the further degradation result was “does not degrade further”.
Take `CC[C@H]1OC(=O)[C@H](C)[C@@H](O[C@H]2C[C@@](C)(OC)[C@@H](O)[C@H](C)O2)[C@H](C)[C@@H](O[C@@H]2O[C@H](C)C[C@H](N(C)C)[C@H]2O)C2(C)CC(C)=C(O2)[C@H](C)[C@@H](O)[C@H]1C` (stereo partly shown) [eBee, erythromycin B enol ether]: the “amount of eBee in the spectrum” value in data set [3] (Britton-Robinson buffer pH 2, 37° C., after 20 min) is on record as “insignificant”. Also, the “amount of eBee remaining” value in data set [3] (buffer, 10 min, pH 2) was about 40%. Moreover, the degradation entry in data set [3] (pH 2.5) was “rapidly degraded to erythromycin B”; in data set [3] (pH 7), “not degraded at least for 80 min”.

The values are drawn from patent US6930092B1, “Antibiotic agents” (priority 1999, dated 2005).
